Laboratory results as given in US20060249167A1, “Flavor ingredients for cooling preparations” (priority 2003, published 2006).

Tests used:
[1] = Organoleptic (odor and flavor) description of the compound and its isomers; settings: in vivo

Row | melting point [°C] | SMILES | flavor [1] | odor [1] | flavor ([1]; listed as (3S,5R,6S,9R) isomer)
1 |  | CC1CCC(C(C)C)C2(C1)OC(=O)C(C)O2 (stereo not shown) [Compound (I), 6-isopropyl-3,9-dimethyl-1,4-dioxaspiro[4.5]decan-2-one] | minty, fresh, piperita type | minty, menthone type odor | 
2 | 33 to 34 | CC(C)[C@@H]1CC[C@@H](C)C[C@]12OC(=O)[C@H](C)O2 [Compound of example 1c, (3S, 5S, 6S, 9R)-6-isopropyl-3,9-dimethyl-1,4-dioxaspiro[4.5]decan-2-one] | more of the cooling type with a minty connotation |  | 
3 |  | CC(C)[C@@H]1CC[C@@H](C)C[C@@]12OC(=O)[C@H](C)O2 [Compound of example 1b, (3S, 5R, 6S, 9R)-6-isopropyl-3,9-dimethyl-1,4-dioxaspiro[4.5]decan-2-one] | more of the cooling type with a minty connotation |  | stronger and more lingering effect
4 |  | CC(C)[C@@H]1CC[C@@H](C)CC12OC(=O)[C@H](C)O2 (stereo partly drawn) [Compound of example 1a, (3S, 6S, 9R)-6-isopropyl-3,9-dimethyl-1,4-dioxaspiro[4.5]decan-2-one] | interesting minty note with refreshing effect |  | 
